The test system of one assay is Caspase-3. The assay can be described thus: Caspase-3 protease activity (ApoTarget kit). It counts as cell-based. On the set-up: unit of the concentration uncertain. An excerpt: The ApoTarget Caspase-3 Protease Activity Kit (Invitrogen) was used per manufacturer's instructions.
The balance between pro- and anti-apoptotic protein expression contributes to cell fate decisions. CREB regulates the expression of several anti-apoptotic proteins, including Bcl-2, Bcl-XL and Mcl-1. Bcl-2 expression in particular is known to mediate resistance to chemotherapy and influence clinical outcome in a number of cancer types, including AML. The ability of Compound A to cause apoptosis by disrupting the CREB-driven expression of these anti-apoptotic proteins was examined. In HL-60 cells treated with Compound A, apoptosis is induced in a dose- and time-dependent manner. […] Compound A elicited apoptosis through the intrinsic apoptosis pathway, with activation of Caspase-3 (FIG. 5, panel B) and detectable Caspase-9 cleavage (data not shown). Relative caspase-3 activity at 24 hours: 5.4±0.8 for etoposide, 1±0.78, 0.93±0.71, 1.02±0.67, 2.9±0.58, 5.1±0.63, 4.1±0.71 for 0, 1, 1.5, 2, 2.5 and 3 mM Compound A, respectively. Activity at 72 hours: 1.2±0.05 for etoposide, 1.0±0.02, 1.9±0.03, 3.7±0.04, 4.4±0.05, 2.1±0.03, 1.9±0.02 for 0, 1, 1.5, 2, 2.5 and 3 mM Compound A, respectively. The transcription of Bcl-2 decreased following 72 hours of 2 mM Compound A treatment (FIG. 5, panel C), and this was verified by Western blot analysis (FIG. 5, panel D). […] To confirm whether loss of Bcl-2 function alone is sufficient to induce apoptosis in AML cells, HL-60 cells were treated with the validated Bcl-2 inhibitor ABT-737 (50 to 200 nM). […] Bcl-2 levels are influenced by CREB expression in these AML cell lines (FIG. 11, panel C).

In a further assay the test system is KG-1 cells. As to the kind of experiment: Viable cell count of engineered KG-1 cell lines (CREB KD, GFP, CREB OE, CBP OE). The conditions noted are these: Homo sapiens, KG-1, 48 h, 48 hours. It counts as cell-based. The procedure: AML cell lines were purchased from ATCC and maintained with IMDM (Gibco) supplemented with 10% FBS (Fisher Scientific) and 1% PSG (Gibco). Cells were plated at a density of 2-4×10^5 cells/ml, and treated with various doses of Compound A in 0.1% DMSO or 0.1% DMSO alone. Cell counts and viability were determined using the Vi-CELL XR Cell Viability Analyzer (Beckman Coulter). HL-60 and KG-1 cells overexpressing CREB or CBP were generated using lentiviral gene delivery with subsequent puromycin selection and FACs sorting for GFP. CREB knockdown was achieved by infecting cells with a lentivirus expressing the shRNA sequence 5′-[…]-3′ (SEQ ID NO:). For chemotherapy combination experiments, combination index values were calculated using median effects analysis on Calcusyn software. Human patient bone marrow samples were cultured in DMEM plus 20% FBS and 1×PSG, supplemented with recombinant GM-CSF (20 ng/ml), G-CSF (20 ng/ml), SCF (50 ng/ml), IL-3 (20 ng/ml), and IL-6 (10 ng/ml). Cells were plated at a concentration of 1×10^5 cells/ml in a 12-well plate. Vehicle (0.1% DMSO) or Compound A (2 μM) was added for up to 72 hours. All samples contained >85% AML blasts and were not sorted prior to performing experiments. Immunostaining and flow cytometry analyses were performed according to standard procedures. All antibodies were purchased from BD Biosciences. Single cell suspensions of bone marrow culture were subsequently analyzed on a D×P10 flow cytometer (Cytek). Bone marrow from AML patients were collected through voluntary patient participation at University of California, Los Angeles (Los Angeles, Calif., USA) and Stanford University (Palo Alto, Calif., USA) in compliance with the Institutional Review Board regulations of each institution.
To test the effects of CREB inhibition on AML cells, four AML cell lines were treated with doses of Compound A ranging from 100 pM to 10 μM for 48 hours. […] KG-1 cells were less sensitive to Compound A and expressed lower levels of CREB compared to HL-60 cells (FIG. 2, panel A). CREB was overexpressed to determine whether sensitivity of KG-1 cells to Compound A could be increased. KG-1 cell lines in which CREB or CBP was overexpressed, or CREB was knocked down by shRNA, were generated (FIG. 2C). A KG-1 cell line expressing only GFP was used as a control. These cell lines were treated with a range of Compound A concentrations for 48 hours (FIG. 2D). Experiments were also performed to examine the efficacy of combining Compound A with cytarabine or daunorubicin, standard drugs used in AML therapy.

The target in assay [1] is T1, KIX domain of CBP, mutant lacking amino acids 586-602 (GST fusion) (Homo sapiens, UniProt Q92793).
T1 construct: spans CBP amino acids 586-666; made in house; host or cells: E. coli BL21(DE3)
T1 sequence (Q92793 with tags, fused parts or gaps, change not shown): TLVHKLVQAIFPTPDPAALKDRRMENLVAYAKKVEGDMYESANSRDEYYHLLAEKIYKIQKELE
As to the kind of experiment: Biacore surface plasmon resonance, binding to KIX deletion mutant versus native KIX. The settings on record: 5 μM. How it is done:
KIX domain mutants were created by standard cloning and mutagenesis methods in the pGEX4T3 vector (GE Healthcare Life Sciences). GST-KIX fusion proteins were expressed in BL21(DE3-) cells (New England Biolabs) following induction with 1 mM IPTG for 6 hours at 37 degrees. GST-KIX and its mutants were purified with the B-PER GST Fusion Protein Spin Purification Kit (Thermo Scientific/Pierce). Surface Plasmon Resonance (Biacore) analysis was performed on a GE Biacore 3000 surface plasmon resonance instrument in collaboration with the Stanford Protein and Nucleic Acid (PAN) Facility.
To confirm the binding of Compound A to the KIX domain of CBP, the KIX domain was expressed and purified as a fusion protein with Glutathione-S-Transferase (GST). Binding of Compound A to the KIX domain and two KIX domain mutants in which residues critical for CREB binding were altered or removed (Arg-600 mutated to Alanine or deletion of amino acids 586-602) was determined by Surface Plasmon Resonance (Biacore) analysis (FIG. 1, panel B). Mutation of Arginine-600 to Alanine reduced binding of Compound A by ˜45%, while a KIX domain mutant lacking amino acids 586-602 reduced binding by ˜70%. […] A hypothetical binding model between Compound A and CBP KIX domain is shown (FIG. 1, panel C). […]
(In SPR one partner is held on a chip, and binding of the other changes the refractive index at the surface.)

Turning to `N#Cc1ccc(NC(=O)c2cc3ccccc3cc2O)cc1` [Compound A, N-(4-cyanophenyl)-3-hydroxy-2-naphthamide], the “relative caspase-3 activity” value worked out at 0.93±0.71 in the assay on Caspase-3 (24 hours, 1 (unit uncertain)); 1.02±0.67 in the assay on Caspase-3 (24 hours, 1.5 (unit uncertain)); 2.9±0.58 in the assay with Caspase-3 (24 hours, 2 (unit uncertain)); 5.1±0.63 in the assay on Caspase-3 (24 hours, 2.5 (unit uncertain)); 4.1±0.71 with Caspase-3 (24 hours, 3 (unit uncertain)); 1.9±0.03 in the assay on Caspase-3 (72 hours, 1 (unit uncertain)). Besides, the “relative caspase-3 activity” value with Caspase-3 (72 hours, 1.5 (unit uncertain)) turned out to be 3.7±0.04; with Caspase-3 (72 hours, 2 (unit uncertain)) it was 4.4±0.05; in the assay with Caspase-3 (72 hours, 2.5 (unit uncertain)), 2.1±0.03; with Caspase-3 (72 hours, 3 (unit uncertain)) it was 1.9±0.02. For the same compound, the IC50 in the assay with KG-1 cells (KG-1 CBP OE) is 826 nM; in the assay on KG-1 cells (KG-1 CREB KD), 1790 nM; in the assay with KG-1 cells (KG-1 CREB OE), 687 nM; with KG-1 cells (KG-1 GFP control) it was 1040 nM. Further, the “reduction of binding of Compound A by KIX mutant lacking amino acids 586-602” value in assay [1] is about 70%.

The term IC50 denotes the midpoint of a concentration-inhibition curve.

(Values after patent US20210205292A1, “INHIBITORS OF CREB-CBP INTERACTION FOR TREATMENT OF LEUKEMIA” (The Board of Trustees of the Leland Stanford Junior …, priority 2016, published 2021).)
